From patent publication US20100184770A1, “COMPOUNDS” (Glaxo Group Limited, priority 2006, published 2010)

Columns and labels:
human H1 receptor [1] = target: T1, human H1 receptor (Homo sapiens, UniProt P35367); assay: Histamine H1 functional antagonist assay: determination of functional pKi values (FLIPR); type: cell-based; conditions: CHO cells expressing human H1 receptor, histamine at EC80, FLIPR, read-out: average pKi (pKb) at H1 (converted)
T1 construct: expressed in transfected cells
Procedure: (§1) 1. Generation of Histamine H1 Cell Line The human H1 receptor is cloned using known procedures described in the literature [Biochem. Biophys. Res. Commun., 201(2):894 (1994)]. Chinese hamster ovary (CHO) cells stably expressing the human H1 receptor are generated according to known procedures described in the literature [Br. J. Pharmacol., 117(6):1071 (1996)].
The histamine H1 cell line is seeded into non-coated black-walled clear bottom 384-well tissue culture plates in alpha minimum essential medium (Gibco/Invitrogen, cat no. 22561-021), supplemented with 10% dialysed foetal calf serum (Gibco/Invitrogen cat no. 12480-021) and 2 mM L-glutamine (Gibco/Invitrogen cat no 25030-024) and is maintained overnight at 5% CO2, 37° C.
Excess medium is removed from each well to leave 10 μl. 30 μl loading dye (250 μM Brilliant Black, 2 μM Fluo-4 diluted in Tyrodes buffer+probenecid (145 mM NaCl, 2.5 mM KCl, 10 mM HEPES, 10 mM D-glucose, 1.2 mM MgCl2, 1.5 mM CaCl2, 2.5 mM probenecid, pH adjusted to 7.40 with NaOH 1.0 M)) is added to each well and the plates are incubated for 60 min at 5% CO2, 37° C.
10 μl of test compound, diluted to the required concentration in Tyrodes buffer+probenecid (or 10 μl Tyrodes buffer+probenecid as a control) is added to each well and the plate is incubated for 30 min at 37° C., 5% CO2. The plates are then placed into a FLIPR™ (Molecular. Devices, UK) to monitor cell fluorescence (λex=488 nm, λEM=540 nm) in the manner described in Sullivan et al., (In: Lambert DG (ed.), Calcium Signaling Protocols, New Jersey: Humana Press, 1999, 125-136) before and after the addition of […] at a concentration that results in the final assay concentration of histamine being EC80.
Functional antagonism is indicated by a suppression of histamine induced increase in fluorescence, as measured by the FLIPR™ system (Molecular Devices). By means of concentration effect curves, functional affinities are determined using standard pharmacological mathematical analysis.

human H1 receptor [2] = target: T1, human H1 receptor; assay: Histamine H1 functional antagonist assay: determination of antagonist pA2 (FLIPR); type: cell-based
Procedure: as §1
The histamine H1 receptor expressing CHO cells are seeded into non-coated black-walled clear bottom 96-well tissue culture plates as described above. […]
The plates are then placed into a FLIPR™ (Molecular Devices, UK) to monitor cell fluorescence (λex=488 nm, λEM=540 nm) in the manner described in Sullivan et al., (In: Lambert D G (ed.), Calcium Signaling Protocols, New Jersey: Humana Press, 1999, 125-136) before and after the addition of 50 μl histamine over a concentration range of 1 mM 0.1 nM. […] The antagonist pA2 is calculated using the following standard equation: pA2=log(DR-1)−log [B] where DR=dose ratio, defined as EC50 antagonist-treated/EC50 control and [B]=concentration of antagonist.

T1 sequence (P35367 whole entry): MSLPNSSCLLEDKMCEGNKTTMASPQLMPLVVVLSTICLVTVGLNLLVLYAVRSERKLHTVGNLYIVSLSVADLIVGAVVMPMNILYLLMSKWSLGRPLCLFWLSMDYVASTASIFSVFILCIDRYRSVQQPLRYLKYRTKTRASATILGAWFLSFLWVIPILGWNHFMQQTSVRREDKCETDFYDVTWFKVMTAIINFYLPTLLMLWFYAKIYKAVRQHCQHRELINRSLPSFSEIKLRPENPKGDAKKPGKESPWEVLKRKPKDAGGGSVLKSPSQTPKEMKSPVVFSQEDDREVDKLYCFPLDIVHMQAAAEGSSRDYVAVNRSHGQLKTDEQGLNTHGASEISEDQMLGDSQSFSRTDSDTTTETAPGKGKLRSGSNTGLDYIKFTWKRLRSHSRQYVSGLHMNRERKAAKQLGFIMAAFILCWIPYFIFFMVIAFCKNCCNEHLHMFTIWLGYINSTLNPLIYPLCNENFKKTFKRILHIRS

| Structure (SMILES) | Ki (human H1 receptor [1]) | Kb (human H1 receptor [2]) |
| --- | --- | --- |
| COCCC(=O)NCCN1CCC[C@@H]1Cn1nc(Cc2ccc(Cl)cc2)c2ccccc2c1=O.O=CO [Example 35, N-[2-((2R)-2-{[4-[(4-Chlorophenyl)methyl]-1-oxo-2(1H)-phthalazinyl]methyl}-1-pyrrolidinyl)ethyl]-3-(methyloxy)propanamide, formate salt] | < 316 nM | < 10 nM |
| Cl.O=C(CC(F)(F)F)NCCN1CCC[C@@H]1Cn1nc(Cc2ccc(Cl)cc2)c2ccccc2c1=O [Example 36a, N-[2-((2R)-2-{[4-[(4-Chlorophenyl)methyl]-1-oxo-2(1H)-phthalazinyl]methyl}-1-pyrrolidinyl)ethyl]-3,3,3-trifluoropropanamide, hydrochloride] | < 31.6 nM | < 10 nM |
